Measurements taken from US9301933B2, “Compositions and methods for treating presbyopia, mild hyperopia, and irregular astigmatism” (ALLERGAN, INC., priority 2011, dated 2016).
Where “and” joins values, the source holds several entries; their conditions need not be identical. Equal values may be shown once. Blank lines part the entries; values can stand above or below the compound they belong to.

Key:
[1] = test system: patients' eyes; conditions: cited from earlier work
[2] = test system: eyes of presbyopic (emmetropic or slightly hyperopic) patients; assay: Unaided distance visual acuity (UDVA), Snellen chart; assay type: in vivo, human; conditions: Example 3
Experimental: (§1) A group of 10 patients (20 eyes) considered emmetropes or slightly hyperopic (Spherical equivalent from +0.88 D to −0.13 D with less than 1.00 D of astigmatism) was treated with a composition of the invention.
(§2) One drop containing 1% pilocarpine and 0.025% oxymetazoline w/w dissolved in a solution of 0.5% sodium chloride, with carboxymethyl cellulose as a viscosant and benzalkonium chloride as preservative were instilled once into the right eye, and the same solution containing 1% pilocarpine without oxymetazoline was instilled once into the left eye and the same measurements were taken one hour, four hours and six hours later. (Each patient acted as its own control) (Table 2). […]

[3] = test system: eyes of presbyopic (emmetropic or slightly hyperopic) patients; assay: Unaided near visual acuity (UNVA) at 40 centimeters, hand-held Rosembaum chart, Jaeger notation; assay type: in vivo, human; set-up: key to 1 h UNVA: J1+ is fine “normal” near vision (equivalent to 20/20 in Snellen terms); J1 is good near vision (equivalent to 20/25 in Snellen terms); J2 and J3 are fair and functional near vision, respectively (equivalent to 20/30 and 20/40, respectively, in Snellen terms); J2 and J3 are fair and functional near vision, respectively (equivalent to 20/30 and 20/40, respectively, in Snellen terms); conditions: Example 3
Experimental: Measurements on the Jaeger scale, a near vision scale, are used and described herein. […]
as §1, §2

[4] = test system: eyes of presbyopic (emmetropic or slightly hyperopic) patients; assay: Refractive power of each eye (sphere, cylinder, spherical equivalent); assay type: in vivo, human; conditions: Example 3
Source text: The following terms are ophthalmic terms commonly used by those of skill in the art. “OD” stands for oculus dexter and means right eye. “OS” stands for oculus sinister and means left eye. “UDVA” stands for unaided distance visual acuity. “UNVA” stands for unaided near visual acuity. “Sph” is the sphere, or the amount of magnification/demagnification that the eye needs to see properly. A negative sphere indicates myopia, and a positive sphere indicates hyperopia. “Cyl” is the cylinder, which is a measure of astigmatism. “Pre” indicates the condition of the eye prior to treatment, 1 h indicates the condition of the eye 1 hour after treatment, 4 h indicates the condition of the eye 4 hours after treatment, and 6 h indicates the condition of the eye 6 hours after treatment. “Sph Eq” is the spherical equivalent.
A group of 10 patients (20 eyes) considered emmetropes or slightly hyperopic (Spherical equivalent from +0.88 D to −0.50 D with less than 1.00 D of astigmatism) was treated with a composition of the invention.
Three drops containing 1% pilocarpine and 0.125% oxymetazoline w/w dissolved in a solution of 0.5% sodium chloride, with carboxymethyl cellulose as a viscosant and benzalkonium chloride as preservative were instilled into each eye three times separated 5 minutes each, and the same measurements were taken one hour, four hours and six hours later (Table 1). As shown in Table 1 and FIGS. 1-2, there was an average gain of 3.7 units of unaided near visual acuity while losing 0.7 lines of uncorrected distance visual acuity at one hour after instillation. […] The improvement in near vision was more pronounced in younger patients and the lack of detriment of the distance vision (FIG. 2) was more marked in hyperopic patients. […]
After a two-week washout period, five of the patients from example 1 were treated with a combination of 1% pilocarpine and 0.015% meloxicam dissolved in a solution of 0.5% sodium chloride in water plus carboxymethyl cellulose as viscosant and benzalkonium chloride as a preservative, and the same measurements in example 1 were taken at one hour, four hours, and eight hours later. […]

[5] = test system: pupil of patients' eyes; assay: Pupillary diameter in medium lighting (mesopic) conditions, infrared camera device; assay type: in vivo, human; conditions: Example 3
Experimental: as §1, §2

SMILES: Brc1c(NC2=NCCN2)ccc2nccnc12 [brimonidine]
side effects of topical administration ([1]; known to those in the art): lightheadedness, dizziness, dry mouth, tachycardia, and stomach upset

induced astigmatism [4]: seemed to induce more astigmatism
SMILES: CC[C@@H]1C(=O)OC[C@@H]1Cc1cncn1C [Pilocarpine alone, pilocarpine]
decrease in distance vision, compared with pilocarpine + oxymetazoline ([2]; FIG. 4, at the 1 and 4 hour time points): more decrease in distance vision
1 h UDVA ([2]; one drop once, OD 1% pilocarpine + 0.025% oxymetazoline, OS 1% pilocarpine alone, single eyes, 1 h): 20/50 and 20/30 and 20/40
4 h UDVA ([2]; one drop once, OD 1% pilocarpine + 0.025% oxymetazoline, OS 1% pilocarpine alone, single eyes, 4 h): 20/40 and 20/20 and 20/30 and 20/25 and 20/50
6 h UDVA ([2]; one drop once, OD 1% pilocarpine + 0.025% oxymetazoline, OS 1% pilocarpine alone, single eyes, 6 h): 20/30 and 20/20 and 20/25
improvement in near vision, compared with pilocarpine + oxymetazoline ([3]; FIG. 3): smaller and tended to wear out earlier
1 h UNVA ([3]; one drop once, OD 1% pilocarpine + 0.025% oxymetazoline, OS 1% pilocarpine alone, single eyes of 10 patients, 1 h): J1 and J1+ and J2 and J3
1 h Cyl, AVERAGE ([4]; average per treatment, 1 h): −0.59
1 h Sph Eq, AVERAGE ([4]; average per treatment, 1 h): −0.61
1 h Sph, AVERAGE ([4]; average per treatment, 1 h): −0.32
4 h Cyl, AVERAGE ([4]; average per treatment, 4 h): −0.59
4 h Sph Eq, AVERAGE ([4]; average per treatment, 4 h): −0.43
4 h Sph, AVERAGE ([4]; average per treatment, 4 h): −0.14
6 h Cyl, AVERAGE ([4]; average per treatment, 6 h): −0.43
6 h Sph Eq, AVERAGE ([4]; average per treatment, 6 h): 0.35
6 h Sph, AVERAGE ([4]; average per treatment, 6 h): 0.57
1 h Pupil ([5]; OD 1% pilocarpine + 0.025% oxymetazoline, OS 1% pilocarpine alone, single eyes, 1 h): 2.1 and 2.3 and 2.2 and 2.4 and 2.5
4 h Pupil ([5]; OD 1% pilocarpine + 0.025% oxymetazoline, OS 1% pilocarpine alone, single eyes, 4 h): 2.7 and 2.8 and 2.5 and 2.9 and 2.4 and 3 and 2.6 and 3.1
6 h Pupil ([5]; OD 1% pilocarpine + 0.025% oxymetazoline, OS 1% pilocarpine alone, single eyes, 6 h): 4.9 and 4.7 and 4.4 and 4.2 and 4.1
1 h Pupil, AVERAGE ([5]; average per treatment, 1 h): 2.05
4 h Pupil, AVERAGE ([5]; average per treatment, 4 h): 2.52
6 h Pupil, AVERAGE ([5]; average per treatment, 6 h): 4.13
decrease in hyperopia ([1]; one patient, 0.3% topical pilocarpine, U.S. Pat. Nos. 6,291,466 and 6,410,544): less than half
tolerability ([1]; topical concentrations above 0.5%): not tolerated due to side effects such as red eyes, ocular pain, brow ache, and headache
effect in the accommodation of the eye ([1]; topical concentrations below 0.5%): minimal effect

SMILES: O=C(O)Cc1ccccc1Nc1c(Cl)cccc1Cl [diclofenac]
serious side effects (Congdon et al.) ([1]; topical ophthalmic use): persistent epithelial defects, corneal melting, and corneal perforation
